Drawing on ChEMBL document CHEMBL3886310, “Pyrrolidine derivatives, pharmaceutical compositions and uses thereof” (2015), this text covers IC50 for 2 molecules.

The test deals with Acetyl-CoA carboxylase 2 (Homo sapiens, UniProt O00763). In words: Spectrophotometric 384 Well Assay: Assay reactions are then carried out in 384-well plates, with hACC2 in an appropriate dilution and at final assay concentrations (f.c.) of 100 mM Tris (pH 7.5), 10 mM trisodium citrate, 25 mM KHCO3, 10 mM MgCl2, 0.5 mg/ml BSA, 3.75 mM reduced L-glutathione, 15 U/ml lactate dehydrogenase, 0.5 mM phosphoenolpyruvate, 15 U/ml pyruvate kinase, compounds at different concentrations at final DMSO concentrations of 1%.The enzymatic reaction is then started by addition of a mixture of NADH, acetyl Coenzyme A (both 200 μM f.c.) and ATP (500 uM f.c.). The decrease of the optical density (slope S) is then determined at 25° C. at a wavelength of 340 nm over 15 minutes in a spectrophotometric reader.
Sequence of Acetyl-CoA carboxylase 2 (O00763 whole entry): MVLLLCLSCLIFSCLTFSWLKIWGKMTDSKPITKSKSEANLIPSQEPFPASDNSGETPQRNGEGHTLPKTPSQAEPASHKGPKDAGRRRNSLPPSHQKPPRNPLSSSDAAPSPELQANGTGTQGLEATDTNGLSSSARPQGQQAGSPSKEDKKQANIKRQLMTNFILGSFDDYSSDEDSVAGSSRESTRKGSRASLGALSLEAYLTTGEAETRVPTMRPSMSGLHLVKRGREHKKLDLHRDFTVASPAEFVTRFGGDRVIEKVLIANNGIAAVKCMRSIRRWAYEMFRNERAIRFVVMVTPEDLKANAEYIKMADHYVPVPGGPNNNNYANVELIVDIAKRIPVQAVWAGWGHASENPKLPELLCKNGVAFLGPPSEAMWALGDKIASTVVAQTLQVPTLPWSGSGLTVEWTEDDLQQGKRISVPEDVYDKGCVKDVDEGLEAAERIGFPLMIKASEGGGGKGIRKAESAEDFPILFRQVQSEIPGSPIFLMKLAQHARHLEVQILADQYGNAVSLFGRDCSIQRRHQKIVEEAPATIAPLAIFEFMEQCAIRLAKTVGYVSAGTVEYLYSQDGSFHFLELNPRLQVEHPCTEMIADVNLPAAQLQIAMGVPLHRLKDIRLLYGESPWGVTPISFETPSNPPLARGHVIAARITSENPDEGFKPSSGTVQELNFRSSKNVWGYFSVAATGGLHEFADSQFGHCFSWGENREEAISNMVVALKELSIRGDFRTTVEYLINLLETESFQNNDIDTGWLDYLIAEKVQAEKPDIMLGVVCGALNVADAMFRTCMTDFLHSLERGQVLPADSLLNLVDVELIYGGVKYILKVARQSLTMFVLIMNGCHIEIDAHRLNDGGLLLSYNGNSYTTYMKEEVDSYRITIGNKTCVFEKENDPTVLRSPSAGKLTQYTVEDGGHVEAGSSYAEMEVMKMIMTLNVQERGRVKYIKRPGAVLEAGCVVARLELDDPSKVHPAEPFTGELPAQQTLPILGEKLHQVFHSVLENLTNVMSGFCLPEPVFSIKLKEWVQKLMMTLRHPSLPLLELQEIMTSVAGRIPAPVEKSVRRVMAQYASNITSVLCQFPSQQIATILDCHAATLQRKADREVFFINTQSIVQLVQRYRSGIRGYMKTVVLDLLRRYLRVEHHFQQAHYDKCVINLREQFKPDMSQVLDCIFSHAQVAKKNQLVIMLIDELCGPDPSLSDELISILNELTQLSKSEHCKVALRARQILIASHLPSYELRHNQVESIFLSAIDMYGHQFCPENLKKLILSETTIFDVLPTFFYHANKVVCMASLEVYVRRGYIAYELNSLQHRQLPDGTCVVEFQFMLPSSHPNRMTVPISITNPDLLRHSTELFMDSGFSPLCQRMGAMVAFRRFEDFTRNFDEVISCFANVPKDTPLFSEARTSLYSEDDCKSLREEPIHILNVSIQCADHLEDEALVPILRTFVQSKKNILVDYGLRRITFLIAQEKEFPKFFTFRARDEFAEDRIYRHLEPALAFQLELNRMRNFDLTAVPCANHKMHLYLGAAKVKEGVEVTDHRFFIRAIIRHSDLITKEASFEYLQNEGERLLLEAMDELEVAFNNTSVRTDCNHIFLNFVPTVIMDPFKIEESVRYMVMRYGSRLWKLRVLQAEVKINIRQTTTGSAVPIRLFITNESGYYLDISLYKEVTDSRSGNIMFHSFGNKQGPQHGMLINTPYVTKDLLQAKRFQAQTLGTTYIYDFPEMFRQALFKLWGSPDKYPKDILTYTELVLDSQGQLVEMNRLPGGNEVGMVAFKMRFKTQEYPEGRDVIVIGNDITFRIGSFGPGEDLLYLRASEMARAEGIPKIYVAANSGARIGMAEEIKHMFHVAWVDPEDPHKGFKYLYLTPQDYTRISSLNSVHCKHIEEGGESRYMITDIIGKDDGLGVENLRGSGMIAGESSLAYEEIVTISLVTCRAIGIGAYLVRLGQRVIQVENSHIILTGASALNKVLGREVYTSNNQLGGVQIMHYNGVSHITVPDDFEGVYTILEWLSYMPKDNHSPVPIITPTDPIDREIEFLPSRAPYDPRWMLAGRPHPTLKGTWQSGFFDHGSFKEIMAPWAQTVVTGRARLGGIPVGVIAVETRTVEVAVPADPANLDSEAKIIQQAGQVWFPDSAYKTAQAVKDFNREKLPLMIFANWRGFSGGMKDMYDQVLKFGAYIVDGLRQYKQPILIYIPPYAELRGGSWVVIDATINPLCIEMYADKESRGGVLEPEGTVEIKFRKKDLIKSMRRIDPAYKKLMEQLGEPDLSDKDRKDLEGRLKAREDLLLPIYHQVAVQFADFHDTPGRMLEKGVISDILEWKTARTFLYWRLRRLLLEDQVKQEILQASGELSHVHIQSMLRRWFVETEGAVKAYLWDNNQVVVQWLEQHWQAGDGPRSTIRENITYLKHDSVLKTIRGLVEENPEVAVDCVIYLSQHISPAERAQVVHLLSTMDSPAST

A word on the IC50: it is the point on the concentration scale where inhibition reaches its midpoint. For `COC(=O)N[C@@H](C)c1ccc(OC2CCN(c3ccc(OC(C)C)cc3)C2)cc1` (some centres not stated), the IC50 came to 1360 nM.

Consider `C[C@H](NC(=O)c1cn[nH]c1)c1ccc(O[C@@H]2CCN(c3ccc(OCC4CC4)cc3)C2)cc1`, for which the IC50 turned out to be 16 nM.
